The values that follow come from US8889345B2, “Detection methods of NADP(H) using mBFP” (priority 2012, dated 2014).

Data set [1] addresses T1, Glucose-6-phosphate dehydrogenase (UniProt P11412).
T1 sequence (P11412 1-505): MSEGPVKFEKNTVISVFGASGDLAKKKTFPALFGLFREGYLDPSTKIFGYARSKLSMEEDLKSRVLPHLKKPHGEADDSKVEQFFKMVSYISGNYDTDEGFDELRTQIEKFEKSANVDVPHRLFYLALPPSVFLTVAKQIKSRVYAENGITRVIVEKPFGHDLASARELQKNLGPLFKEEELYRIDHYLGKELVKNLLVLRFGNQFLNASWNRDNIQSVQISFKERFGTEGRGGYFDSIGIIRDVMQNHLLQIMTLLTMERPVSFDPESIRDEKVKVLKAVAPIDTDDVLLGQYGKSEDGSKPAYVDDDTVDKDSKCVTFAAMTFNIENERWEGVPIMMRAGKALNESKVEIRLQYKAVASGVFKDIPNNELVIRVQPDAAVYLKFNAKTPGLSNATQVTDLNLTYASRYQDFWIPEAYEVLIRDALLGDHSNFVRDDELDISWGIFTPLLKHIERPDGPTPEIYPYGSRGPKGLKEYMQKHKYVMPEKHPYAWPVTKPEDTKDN
Description: Inhibitor IC50 against NADPH dependent oxidoreductase, by his-mBFP fluorescence quantification of NADPH. The class given is biochemical. The settings on record: compounds added at 0.1 to 10 mM, sigma plot. The procedure: (§1) As an example of typical reactions, first, 0.02 units of glutathione reductase was reacted with 50 mM potassium phosphate buffer (pH 7.5) containing 5 mM of oxidized glutathione (GSSG) and 2 mM NADPH at room temperature, and then fluorescence was measured. In addition, 0.03 units of isocitrate dehydrogenase was reacted with 50 mM phosphate buffer (pH 7.2) containing 5 mM isocitrate, 2 mM MgCl2, and 2 mM NADP+ at room temperature, and then fluorescence was measured. In addition, 0.02 units of glucose-6-phosphate dehydrogenase was reacted with 50 mM Tris-HCL buffer (pH 7.5) containing 5 mM glucose-6-phosphate, 50 mM MgCl2, and 2 mM NADP+ at room temperature, and then fluorescence was measured. Further, 0.04 units of malate dehydrogenase was reacted with 50 mM Tris-HCL buffer (pH 7.5) containing 5 mM L-malate, 50 mM MgCl2, and 2 mM NADP+ at room temperature, and then fluorescence was measured. In addition, 0.02 units of NADPH oxidase was reacted with 50 mM phosphate buffered saline (PBS) containing 50 mM MgCl2 and 2 mM NADP+ at room temperature, and then fluorescence was measured. At the time of measuring the fluorescence, the reaction solution was diluted in consideration of mole ratio with his-mBFP.
(§2) In addition, the present invention may selectively select an activity inhibitor by restricting the library in the above-mentioned process with a clone having an oxidation/reduction enzyme family, adding a specific compound as well as a substrate in a process of measuring the activities of these enzymes, calculating a changed amount of NADP(H) to compare the calculated value with that of a control group (only substrate was add). These processes mean that after clones having related enzyme activities are cultured and a substrate and NADP(H) are added thereto, a changed amount of NADPH is quantified while inducing a reaction in an environment in which various synthetic materials are present.
(§3) In more detail, compounds having a possibility as the activity inhibitor were added to reaction solution of NADPH dependent oxidoreductase as in Example 7 at each concentration (0.1 to 10 mM). While the reaction was carried out, a produced amount of NADPH according to addition of each compound was quantified, and an inhibition degree of specific enzyme activity was confirmed by comparing the produced amount of NADPH in the case of adding the compound (test group) with that of in the case of not adding (control group).
(§4) After rates of NADPH production (reduction) reaction according to the concentration changes of primary selected compounds were measured, IC50 of each compound was calculated using a sigma plot program.

For a further data set, the target named is Isocitrate dehydrogenase. Described as above. The class given is biochemical. Particulars: compounds added at 0.1 to 10 mM, sigma plot. The procedure:
as §1, §2, §3, §4

The next data set concerns the target Alcohol dehydrogenase. Described as above. Type of data set: biochemical. The settings on record: compounds added at 0.1 to 10 mM, sigma plot. The procedure:
as §1, §2, §3, §4

A short description of data set [2]: Retention of fluorescence of his-mBFP according to storage method. The class given is physicochemical. The procedure: In order to search a long-term storage method for his-mBFP requiring retention of the structure that is an important factor in fluorescence activity, suitable protein storage methods were observed. As storage conditions, degrees of reduction of fluorescence according to time were confirmed at different temperatures (4° C., −20° C., −80° C.) and different concentrations of additives for storage (5% trehalose, 25% glycerol, 50% glycerol, based on final concentration).
Among his-mBFP samples stored under each of the conditions, in the case of frozen samples, the sample was sufficiently hydrated in a cool buffer for 5 to 45 minutes in consideration of reconstruction of the structure, time required for restoration, or the like, and then was used in the experiment.

The term IC50 denotes the concentration that gives 50% inhibition. Higher therefore signals weaker potency in that assay. As to `O=C(O[C@@H]1Cc2c(O)cc(O)cc2O[C@H]1c1cc(O)c(O)c(O)c1)c1cc(O)c(O)c(O)c1` [gallocatechin gallate], it took 225 ± 28.6 µM to reach half-maximal inhibition in data set [1] (IC50).

`CC(O)(C(=O)O)C(CC(=O)O)C(=O)O` (stereo not drawn) [methylisocitric acid] displayed an IC50 against Isocitrate dehydrogenase of 102 ± 7.4 µM.

Regarding `O=C(O)C(=O)C(C(=O)O)C(O)C(=O)O` (stereo not drawn) [oxalomalic acid], the half-inhibitory concentration (IC50) against Isocitrate dehydrogenase was 63.3 ± 5.2 µM.

Turning to `O=C(O[C@@H]1Cc2c(O)cc(O)cc2O[C@@H]1c1ccc(O)c(O)c1)c1cc(O)c(O)c(O)c1` [epicatechin gallate], the IC50 in data set [1] worked out at 235 ± 37.8 µM.

Consider `COc1ccc(/C=C/c2cc(O)cc(O[C@@H]3O[C@H](CO)[C@@H](O)[C@H](O)[C@H]3O)c2)cc1O` [Rhaponticin], for which half-maximal inhibition against Alcohol dehydrogenase (IC50) required 61.2 ± 4.1 µM.

On Alcohol dehydrogenase, `OC[C@H]1O[C@@H](Oc2cc(O)cc(/C=C/c3ccc(O[C@@H]4O[C@H](CO)[C@@H](O)[C@H](O)[C@H]4O)cc3O)c2)[C@H](O)[C@@H](O)[C@@H]1O` [Mulberroside A] showed an IC50 of 48.9 ± 4.9 µM.

As to `Cc1cn[nH]c1` [Formepizole], it took 40.6 ± 5.8 µM to reach half-maximal inhibition against Alcohol dehydrogenase (IC50).

B1: his-mBFP: metagenome-derived blue fluorescent protein with histidine tag, amino acid sequence SEQ ID NO: 3 (protein)
chain: MRGSHHHHHHGSACQNLNGKVAFVTGGSRGIGAAIVRRLAADGADIAFTYVSASSKNVATALVQELEAKGRRARAIQADSADPAQVRQAVEQAIVQLGPVDVLVNNAGIFLAGPLGEVTLDDYERTMNINVRAPFVAIQAAQASMPDGGRIINIGSCLAERAGRAGVTLYAASKSALLGMTRGLARDLGARGITANVVHPGPIDTDMNPADGERSGELVAVLSLPHYGEVRDIAGMVAFLAGPDGRYVTGASLAVDGGFAA
modifications: synthetic construct of His-tagged metagenome-derived blue fluorescent protein (mBFP)
As for B1, the fluorescence maintained in data set [2] (after 6 months, additive (25% to 50%) added) is not below 90%; in data set [2] (both cool and frozen conditions after 6 months), not below 80%; in data set [2] (cold room at 4° C. for 2 months, solution state, no additive for storage) it was not below 80%; in data set [2] (freezer at −20 to −80° C. for 2 months with an additive for storage), not below 95%. In data set [2] (glycerol final concentration 50%, freezer at −80° C.), this molecule displayed a fluorescence intensity maintained not below 90%.
